Laboratory results from patent US10925890B2, “Use of dextran sulfate” (TX MEDIC AB, priority 2014, dated 2021).

What was measured:
[1] = tested on: Rat Hind-Limb Ischemia Model; assay: In vivo assessment of limb function, rat hind-limb ischemia; conditions: for Incidence of limb function score 0 / Incidence of limb function score 1 / Incidence of limb function score 2 / Incidence of limb function score 3: Day 28
Method: The femoral artery and vein were ligated twice with 4-0 silk thread and transected between the ligatures. The wound was closed with 3-0 silk thread and the rats were allowed to recover.
Animals in group 4M and 5M were injected s.c. once on Day 8, see Table 12.
Semi-quantitative assessment of impaired use of the ischemic limb was performed once a week post-surgery using the scale presented in Table 7. Scoring was performed by personnel blinded to the treatment.

[2] = Body weight, mouse critical limb ischemia study; format: in vivo
From the text: In total 60 male Balb/c mice, 9 weeks old, having an average body weight of 24.7 g at study initiation (day 0) were obtained from Harlan Laboratories, Israel. The minimal and maximal weight recorded in each group was within the range of ±20% of the group mean. Animals were handled according to the National Institute of Health (NIH) and the Association for Assessment and Accreditation of Laboratory Animal Care (AAALAC). Animals were housed in polysufone (PSU) cages (5/cage) measuring […], with stainless steel top grill having facilities for pelleted food and drinking water in glass-clear polycarbonate bottle; bedding: steam sterilized clean paddy husk (Harlan, Sani-chip, Cat #: 106S8216) was used and bedding material was changed along with the cage at least twice a week. Animals were fed ad libitum a commercial rodent diet (Teklad Certified Global 18% Protein Diet cat #: 106S8216). Animals had free access to autoclaved and acidified drinking water (pH between 2.5 and 3.5) obtained from the municipality supply. Animals were housed under standard laboratory conditions, air conditioned and filtered (HEPA F6/6) with adequate fresh air supply (minimum 15 air changes/hour). Animals were kept in a climate controlled environment. Temperatures range was 20-24° C. and RH range was 30-70% with 12 hours light and 12 hours dark cycle.
Body weight was measured on study day −1 prior to surgery and once a week thereafter. […] From day 14 onwards a gradual increase in weight was observed. Accordingly, between day 0 and day 35 the mean increase in body weight ranged between 0.4 g to 1.7 g, see Table 2.

[3] = Body weight, tMCAO rat-stroke study; format: in vivo; conditions: 30 mg/kg 3 times a week or 15 mg/kg daily s.c., 28 days
From the text: In total 46 male SD rats having an average body weight of 342 g at study initiation (Day 0) were obtained from Harlan Laboratories, Israel. The minimal and maximal weight recorded in each group was within a range of ±20% of the group mean weight. Animals were handled according to guidelines of the National Institute of Health (NIH) and the Association for Assessment and Accreditation of Laboratory Animal Care (AAALAC). Animals were housed in polyethylene cages (5/cage) measuring 35×30×15 cm, with stainless steel top grill facilitating pelleted food and drinking water in plastic bottle; bedding: steam sterilized clean paddy husk (Harlan, Sani-chip cat #:2018SC+F) was used and bedding material was changed along with the cage at least twice a week. Animals were fed ad libitum a commercial rodent diet (Teklad Certified Global 18% Protein Diet cat #: 106S8216). Animals had free access to autoclaved and acidified drinking water (pH between 2.5 and 3.5) obtained from the municipality supply. Animals were housed under standard laboratory conditions, air-conditioned and filtered (HEPA F6/6) with adequate fresh air supply (Minimum 15 air changes/hour). Animals were kept in a climate-controlled environment. Temperatures range was 20-24° C. and RH range was 30-70% with 12 hours light and 12 hours dark cycle. […]

[4] = tested on: Rat Hind-Limb Ischemia Model; assay: Immunohistochemistry, SMA and Factor 8 capillaries density, rat hind-limb ischemia; format: in vivo; conditions: groups 2M-5M vs control 1M; Day 28
Method: Four sections of muscle samples were taken from the same areas of six animals from groups 1M, 2M, 3M, 4M, 5M and stained for blood vessels using antibodies against SMA and Factor 8. The area of blood vessels was evaluated by using image analysis. Density was expressed as the mean number of capillaries per field of view. Total vessels represented all blood vessels in the measured area. The number of SMA and factor 8 positive capillaries in right ischemic limb was larger in all dextran sulfate treated groups 2M-5M compared to the control group 1M on Day 28 of the study, see FIG. 23. SMA and factor 8 positive staining are considered as an indication for small capillaries formation in rats, and thus the obtained results supported blood flow improvement observed in the animal groups treated with dextran sulfate. Statistical analysis performed using two-way ANOVA followed by Bonferroni multiple comparisons, */** indicate p<0.0510.01.

tMCAO rat-stroke model = assay: Brain immunostaining: capillaries density (SMA) and GFAP, tMCAO rat; format: in vivo
From the text: On day 30 after MCAO, rats were anesthetized by ketamine/xylazine were transcardiacly perfused by buffered paraformaldehyde (PFA) 4%. The brains were collected fixed in 4% buffered PFA for immunostaining and histological evaluation.
Two sections of brain samples were taken from the same areas of six animals from groups 1M and 3M. Capillaries were counted under the microscope in a total of three random fields from each section. Density was expressed as the mean number of capillaries per field of view.

[5] = tested on: Critical Hind-Limb Ischemia Mouse Model; assay: Macroscopic evaluation of ischemic severity (necrosis grades), mouse hind-limb ischemia
From the text: On the day of surgery anesthesia was induced by 1.5 to 3.0% isoflurane, 1.5% N2O and 0.5% O2. Under anesthesia, the mice were placed with ventral side up. A 0.5-1.0 cm incision was made in the skin in the inguinal area. The femoral artery was ligated proximally just after the distal part of the iliac artery and distally after its bifurcation with profound femoral artery with 6-0 silk thread, transected and excised between two ligatures. The wound was closed with 4-0 silk thread and the mice were allowed to recover.
On day 8, week 2 post-surgery, each animal in groups 2M and 3M were injected dextran sulfate solution s.c. three times a week.

[6] = group 2M, 30 mg/kg s.c. 3 times a week
[7] = group 3M, 30 mg/kg (as printed in Table 12) s.c. 3 times a week
[8] = group 4M, 30 mg/kg s.c. administered once
[9] = group 5M, 3 mg/kg s.c. administered once
[10] = day 7 (before treatment start day 8), group 2M, 10 mg/kg 3 times/week
[11] = day 7 (before treatment start day 8), group 3M, 30 mg/kg 3 times/week
[12] = day 7 (before treatment start day 8), group 4M, 30 mg/kg 1 time/week

Dextran sulfate
Incidence of limb function score 0 [1, 6]: 100%
Incidence of limb function score 1 [1, 6]: 0%
Incidence of limb function score 2 [1, 6]: 0%
Incidence of limb function score 3 [1, 6]: 0%
Incidence of limb function score 0 [1, 7]: 88%
Incidence of limb function score 1 [1, 7]: 12%
Incidence of limb function score 2 [1, 7]: 0%
Incidence of limb function score 3 [1, 7]: 0%
Incidence of limb function score 0 [1, 8]: 100%
Incidence of limb function score 1 [1, 8]: 0%
Incidence of limb function score 2 [1, 8]: 0%
Incidence of limb function score 3 [1, 8]: 0%
Incidence of limb function score 0 [1, 9]: 94%
Incidence of limb function score 1 [1, 9]: 6%
Incidence of limb function score 2 [1, 9]: 0%
Incidence of limb function score 3 [1, 9]: 0%
Limb function score, treated groups vs control ([1]; groups 2M, 3M, 4M and 5M vs 1M, Day 14 through Day 28): statistically significant differences
Mean weight change from day 0 to day 35 ([2]; group 2M, 10 mg/kg s.c. 3 times/week from day 8): 1.0 g
Mean weight change from day 0 to day 35 ([2]; group 3M, 30 mg/kg s.c. 3 times/week from day 8): 1.7 g
Mean weight change from day 0 to day 35 ([2]; group 4M, 30 mg/kg s.c. 1 time/week from day 8): 1.0 g
Mean body weight, differences between the groups ([2]; throughout the study, two-way ANOVA, Bonferroni): no statistically significant differences
Body weight, differences among treatment groups [3]: no statistically significant differences
Number of SMA and factor 8 positive capillaries in right ischemic limb [4]: larger
Number of SMA capillaries with diameter less than 30 μm (tMCAO rat-stroke model; 15 mg/kg daily vs vehicle control): Improvement
Number of capillaries compared to vehicle treated control (tMCAO rat-stroke model; 15 mg/kg daily, 30 days after stroke): increased the number of capillaries
Inflammatory response compared to vehicle treated control (tMCAO rat-stroke model; GFAP area, day 30): reduced inflammatory response
Incidence of mice with limb amputation [5, 10]: 0.0%
Incidence of mice with toe necrosis [5, 10]: 0.0%
Incidence of mice with limb amputation [5, 11]: 0.0%
Incidence of mice with toe necrosis [5, 11]: 0.0%
Incidence of mice with limb amputation [5, 12]: 0.0%
Incidence of mice with toe necrosis [5, 12]: 0.0%
Incidence of mice with limb amputation ([5]; day 35, group 2M, 10 mg/kg s.c. 3 times/week, vehicle 15.4): 0.0%
Incidence of mice with toe necrosis ([5]; day 35, group 2M, 10 mg/kg s.c. 3 times/week, vehicle 23.1): 21.4%
Incidence of mice with limb amputation ([5]; day 35, group 3M, 30 mg/kg s.c. 3 times/week, vehicle 15.4): 0.0%
Incidence of mice with toe necrosis ([5]; day 35, group 3M, 30 mg/kg s.c. 3 times/week, vehicle 23.1): 14.3%
Incidence of mice with limb amputation ([5]; day 35, group 4M, 30 mg/kg s.c. 1 time/week, vehicle 15.4): 7.1%
